Experimental data as given in publication PMC3323550, “Functional Characterization of EngA^MS, a P-Loop GTPase of Mycobacterium smegmatis” (PLoS ONE, 2012).

Columns and labels:
EngA^MS (MSMEG_3738) [1] = target: T1, EngA^MS (MSMEG_3738) (Mycolicibacterium smegmatis, UniProt A0QYP9); assay: colorimetric Pi release GTPase assay; type: biochemical
T1 construct: gene der
T1 sequence (A0QYP9 1-471): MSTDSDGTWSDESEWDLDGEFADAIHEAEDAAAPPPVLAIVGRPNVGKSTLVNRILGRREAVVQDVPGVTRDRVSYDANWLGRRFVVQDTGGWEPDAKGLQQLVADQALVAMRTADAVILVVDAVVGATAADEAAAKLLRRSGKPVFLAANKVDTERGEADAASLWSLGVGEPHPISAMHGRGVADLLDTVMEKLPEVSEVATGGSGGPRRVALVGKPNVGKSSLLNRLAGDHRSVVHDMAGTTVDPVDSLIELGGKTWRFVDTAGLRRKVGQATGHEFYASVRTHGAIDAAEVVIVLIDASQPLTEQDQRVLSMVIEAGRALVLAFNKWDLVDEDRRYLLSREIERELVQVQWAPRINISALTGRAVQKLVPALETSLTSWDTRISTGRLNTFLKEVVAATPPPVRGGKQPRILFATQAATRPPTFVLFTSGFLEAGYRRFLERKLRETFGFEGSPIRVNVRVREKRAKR

EngA^MS (MSMEG_3738) [2] = target: T2, EngA^MS (MSMEG_3738) (Mycolicibacterium smegmatis, UniProt A0QYP9, D154N); assay: fluorescent mant-nucleotide binding assay, single concentration; details: 4 µM protein, 1 µM mant-GDP, 40 mM Tris-Cl pH 8.0, 2 mM MgCl2, 40% glycerol, room temperature; labelled compound
T2 construct: gene der
T2 sequence (A0QYP9 entry or part of it D154N): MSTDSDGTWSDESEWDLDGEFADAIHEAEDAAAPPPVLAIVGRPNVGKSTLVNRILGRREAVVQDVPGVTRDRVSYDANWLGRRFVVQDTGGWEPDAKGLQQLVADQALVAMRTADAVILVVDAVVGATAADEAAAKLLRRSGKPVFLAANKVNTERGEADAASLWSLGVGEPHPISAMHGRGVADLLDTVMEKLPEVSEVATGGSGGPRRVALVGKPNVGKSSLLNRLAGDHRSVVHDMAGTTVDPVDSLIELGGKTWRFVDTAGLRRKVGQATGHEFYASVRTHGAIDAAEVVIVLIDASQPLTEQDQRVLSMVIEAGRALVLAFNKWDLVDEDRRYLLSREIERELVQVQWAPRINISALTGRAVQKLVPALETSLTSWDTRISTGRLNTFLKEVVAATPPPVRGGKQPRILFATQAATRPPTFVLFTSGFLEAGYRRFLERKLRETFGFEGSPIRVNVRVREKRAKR

EngA^MS (MSMEG_3738) [3] = target: T3, EngA^MS (MSMEG_3738) (Mycolicibacterium smegmatis, UniProt A0QYP9, D331N); assay: as above; details: 4 µM protein, 1 µM mant-GDP, 40 mM Tris-Cl pH 8.0, 2 mM MgCl2, 40% glycerol, room temperature; labelled compound
T3 construct: gene der
T3 sequence (A0QYP9 entry or part of it D331N): as the sequence (A0QYP9 entry or part of it D154N) above, with N154D, D331N counted along it

[4] = substrate: Nc1nc2c(ncn2[C@@H]2O[C@H](COP(=O)(O)OP(=O)(O)OP(=O)(O)O)[C@@H](O)[C@H]2O)c(=O)[nH]1; assay: colorimetric Pi release GTPase assay; type: biochemical, Mycolicibacterium smegmatis; details: 40 mM Tris-Cl pH 8.0, 2 mM MgCl2, 40% glycerol, 1 h, no GDP

Molecule `Nc1nc2c(ncn2[C@@H]2O[C@H](COP(=O)(O)OP(=O)(O)O)[C@@H](O)[C@H]2O)c(=O)[nH]1` [GDP] has an inhibition at 200 µM (EngA^MS (MSMEG_3738) [1]) of 40%.

In the case of `CNc1ccccc1C(=O)O[C@H]1[C@@H](O)[C@H](n2cnc3c(=O)[nH]c(N)nc32)O[C@@H]1COP(=O)(O)OP(=O)(O)O` [mant-GDP], the “% reduction in binding affinity vs wild-type” value (EngA^MS (MSMEG_3738) [2]) is reported as ~ 50% and the “% reduction in binding affinity vs wild-type” value (EngA^MS (MSMEG_3738) [3]) is reported as ~ 50%.

B1: EngA^MS (MSMEG_3738) (Mycolicibacterium smegmatis MC2 155) (protein)
chain: MSTDSDGTWSDESEWDLDGEFADAIHEAEDAAAPPPVLAIVGRPNVGKSTLVNRILGRREAVVQDVPGVTRDRVSYDANWLGRRFVVQDTGGWEPDAKGLQQLVADQALVAMRTADAVILVVDAVVGATAADEAAAKLLRRSGKPVFLAANKVDTERGEADAASLWSLGVGEPHPISAMHGRGVADLLDTVMEKLPEVSEVATGGSGGPRRVALVGKPNVGKSSLLNRLAGDHRSVVHDMAGTTVDPVDSLIELGGKTWRFVDTAGLRRKVGQATGHEFYASVRTHGAIDAAEVVIVLIDASQPLTEQDQRVLSMVIEAGRALVLAFNKWDLVDEDRRYLLSREIERELVQVQWAPRINISALTGRAVQKLVPALETSLTSWDTRISTGRLNTFLKEVVAATPPPVRGGKQPRILFATQAATRPPTFVLFTSGFLEAGYRRFLERKLRETFGFEGSPIRVNVRVREKRAKR
For B1, the Km [4] was 39 µM and the kcat [4] was 0.005 min⁻¹.
